The text below walks through data of ChEMBL document CHEMBL1140196, “Synthesis and biological activities of some new fluorinated coumarins and 1-aza coumarins” (Eur J Med Chem, 2008).

Calls of active or inactive are those of the source. No cut-off for these calls is given here.

Holding throughout (type): functional
In assay [1] the test system is Macrophomina phaseolina. The experiment in a line: Antifungal activity against Rhizoctonia bataticola at 25 ug/mL after 48 hrs by cup-plate method.
Assay [2] concerns Aspergillus niger. The experiment in a line: Antifungal activity against Aspergillus niger at 50 ug/mL after 48 hrs by cup-plate method.
The subject of assay [3] is Bacillus. The experiment in a line: Antibacterial activity against […] at 100 ug/mL after 48 hrs by cup-plate method.
The subject of assay [4] is Bacillus. The experiment in a line: Antibacterial activity against […] at 50 ug/mL after 48 hrs by cup-plate method.
Assay [5] concerns Macrophomina phaseolina. The experiment in a line: Antifungal activity against Rhizoctonia bataticola at 50 ug/mL after 48 hrs by cup-plate method. Particulars: for zone of inhibition at 50 µg/mL: read-out: IZ.
For assay [6], the system named is Bacillus. The experiment in a line: Antibacterial activity against […] at 25 ug/mL after 48 hrs by cup-plate method. Particulars: for zone of inhibition at 25 µg/mL: read-out: IZ.
The test system of assay [7] is Macrophomina phaseolina. Description: Antifungal activity against Rhizoctonia bataticola at 100 ug/mL after 48 hrs by cup-plate method.
In assay [8] the test system is Escherichia coli. Description: Antibacterial activity against Escherichia coli at 25 ug/mL after 48 hrs by cup-plate method. Particulars: for zone of inhibition at 25 µg/mL: read-out: IZ.
Assay [9] relates to Escherichia coli. The experiment in a line: Antibacterial activity against Escherichia coli at 100 ug/mL after 48 hrs by cup-plate method.
The subject of assay [10] is Aspergillus niger. The experiment in a line: Antifungal activity against Aspergillus niger at 100 ug/mL after 48 hrs by cup-plate method.
Assay [11] deals with Aspergillus niger. The experiment in a line: Antifungal activity against Aspergillus niger at 25 ug/mL after 48 hrs by cup-plate method. Particulars: for zone of inhibition at 25 µg/mL: read-out: IZ.
In assay [12] the test system is Escherichia coli. Description: Antibacterial activity against Escherichia coli at 50 ug/mL after 48 hrs by cup-plate method.

Regarding `O=c1cc(CNc2ccc(F)cc2)c2cc(Cl)ccc2o1`, the inhibition at 25 µg/mL turned out to be 68% in assay [1], 64% in assay [6], 51% in assay [8] and 64% in [11]. The inhibition at 50 µg/mL in [2] came to 73%; in assay [4], 83%; in assay [5] it was 76%; in assay [12] it was 64%. Besides, the inhibition at 100 µg/mL stood at 99% in [3], 91% in assay [7], 95% in assay [9] and 90% in [10]. The zone of inhibition at 25 µg/mL in assay [8] worked out at 92 mm.

For the molecule `CCn1cc(C(=O)O)c(=O)c2cc(F)c(N3CCNCC3)cc21` [NORFLOXACIN], the inhibition at 25 µg/mL in assay [1], in assay [6], in [8] and in assay [11] was 100% each time. Also, the inhibition at 50 µg/mL in [2], in assay [4], in assay [5] and in [12] was 100% throughout. For the same molecule, the inhibition at 100 µg/mL in [3], in assay [7], in assay [9] and in [10] was 100% in each case.

Regarding `O=c1cc(CNc2ccc(F)cc2)c2ccccc2[nH]1`, the inhibition at 25 µg/mL was determined as 21% in assay [1] and 24% in assay [11]. The inhibition at 50 µg/mL in assay [2] is 41%; in assay [4], 36%; in assay [5], 36%; in assay [12], 34%. For the same molecule, the inhibition at 100 µg/mL worked out at 68% in [3], 60% in [7], 57% in assay [9] and 63% in assay [10]. Moreover, the zone of inhibition at 50 µg/mL in assay [5] turned out to be 90 mm. Also, the outcome in assay [6] and in [8] was inactive. For the same molecule, the zone of inhibition at 25 µg/mL in assay [11] is 54 mm.

Consider `Cc1cccc2c(COc3ccc(F)cc3)cc(=O)[nH]c12`, for which the inhibition at 25 µg/mL amounted to 21% in assay [1] and 22% in assay [11]. Moreover, the inhibition at 50 µg/mL in assay [2] was determined as 36%; in [4], 31%; in assay [5], 36%; in [12], 33%. Moreover, the inhibition at 100 µg/mL worked out at 62% in [3], 58% in assay [7], 57% in assay [9] and 60% in assay [10]. In assay [5], the zone of inhibition at 50 µg/mL amounted to 90 mm. Moreover, the outcome in assay [6] and in assay [8] was inactive. In [11], the zone of inhibition at 25 µg/mL amounted to 52 mm.

For the molecule `O=c1cc(COc2ccc(Br)cc2)c2ccc(Cl)cc2[nH]1`, the result in assay [1], in [6] and in [8] was inactive. Besides, the inhibition at 50 µg/mL in assay [2] came out at 35%; in assay [4], 26%; in assay [5] it was 31%; in [12], 30%. Further, the inhibition at 100 µg/mL in assay [3] stood at 60%; in [7], 54%; in assay [9] it was 50%; in [10], 60%. For the same molecule, the zone of inhibition at 50 µg/mL in assay [5] was 80 mm. This molecule registered an inhibition at 25 µg/mL in assay [11] of 18%. The zone of inhibition at 25 µg/mL in assay [11] worked out at 46 mm.

In the case of `O=c1cc(COc2ccc(Cl)cc2)c2ccc(Cl)cc2[nH]1`, the result in assay [1], in assay [6], in [8] and in assay [11] was inactive. Also, the inhibition at 50 µg/mL in assay [2] came out at 21%; in [4] it was 25%; in assay [5] it was 35%; in assay [12] it was 27%. Besides, the inhibition at 100 µg/mL was 56% in [3], 51% in [7], 48% in [9] and 50% in assay [10]. Moreover, in assay [5], the zone of inhibition at 50 µg/mL turned out to be 78 mm.

For `O=c1cc(COc2ccc(Cl)cc2)c2cc(Cl)ccc2[nH]1`, the outcome in assay [1], in assay [6], in [8] and in assay [11] was inactive. For the same molecule, the inhibition at 50 µg/mL amounted to 25% in [2], 31% in [4], 33% in assay [5] and 30% in assay [12]. Moreover, the inhibition at 100 µg/mL in assay [3] is 60%; in [7] it was 55%; in assay [9], 50%; in assay [10], 53%. The zone of inhibition at 50 µg/mL in [5] was 84 mm.

As to `Cc1ccc2c(COc3ccc(Br)cc3)cc(=O)oc2c1`, the result in assay [1] and in assay [11] was inactive. Besides, the inhibition at 50 µg/mL came to 22% in assay [2], 37% in [4], 32% in assay [5] and 37% in assay [12]. Moreover, the inhibition at 100 µg/mL in assay [3] was 63%; in [7] it was 57%; in assay [9], 66%; in assay [10] it was 52%. Besides, the zone of inhibition at 50 µg/mL in assay [5] was 84 mm. In addition, the inhibition at 25 µg/mL in assay [6] and in assay [8] was 20% throughout. Further, the zone of inhibition at 25 µg/mL in assay [6] and in assay [8] was 48 mm each time.

Take `Cc1ccc2c(COc3ccc(Cl)cc3)cc(=O)oc2c1`: the result in assay [1] and in assay [11] was inactive. For the same molecule, the inhibition at 50 µg/mL in assay [2] was 22%; in assay [4], 33%; in assay [5], 27%; in assay [12], 35%. Moreover, the inhibition at 100 µg/mL worked out at 62% in assay [3], 54% in [7], 65% in [9] and 50% in [10]. For the same molecule, the zone of inhibition at 50 µg/mL in assay [5] is 75 mm. The inhibition at 25 µg/mL in [6] and in assay [8] was 14% each time. In addition, the zone of inhibition at 25 µg/mL in assay [6] and in assay [8] was 40 mm in each case.

For `Cc1ccc2c(COc3ccc(F)cc3)cc(=O)oc2c1`, the result in assay [1] and in assay [11] was inactive. In addition, the inhibition at 50 µg/mL in assay [2] stood at 21%; in assay [4], 37%; in assay [5], 30%; in assay [12], 37%. For the same molecule, the inhibition at 100 µg/mL in assay [3] is 64%; in assay [7] it was 53%; in [9] it was 62%; in [10], 52%. Also, the zone of inhibition at 50 µg/mL in assay [5] was found to be 80 mm. Also, the inhibition at 25 µg/mL is 21% in [6] and 17% in assay [8]. Also, the figures for the zone of inhibition at 25 µg/mL in assay [6] and in [8] were 50 mm and 44 mm, respectively.

For `CN(C)C=O` [DIMETHYLFORMAMIDE], the zone of inhibition at 100 µg/mL in [3] (read-out: IZ), in [7] (read-out: IZ), in assay [9] (read-out: IZ) and in [10] (read-out: IZ) was 20 mm throughout. Moreover, the zone of inhibition at 50 µg/mL in assay [5] is 20 mm. The zone of inhibition at 25 µg/mL in [6], in assay [8] and in assay [11] was 20 mm each time.
